Test results published in PubChem BioAssay (NCI).
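1) Cells in 96-well plates. 2) Compound, 48 h, 5 concentrations. 3) Linear interpolation between surrounding doses. 4) Unreached endpoint = highest concentration. At the GI50, growth is halved. TGI: concentration producing complete growth inhibition.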

Legend:
Assay in all cases: NCI anticancer screen, dose series, 48 h
CCRF-CEM leukemia = test system: CCRF-CEM leukemia
NCI-H460 lung = test system: NCI-H460 lung
OVCAR-3 ovarian = test system: OVCAR-3 ovarian
SF-268 CNS = test system: SF-268 CNS
SK-OV-3 ovarian = test system: SK-OV-3 ovarian
TK-10 renal = test system: TK-10 renal
COLO 205 colon = test system: COLO 205 colon
MOLT-4 leukemia = test system: MOLT-4 leukemia
OVCAR-5 ovarian = test system: OVCAR-5 ovarian
SNB-19 CNS = test system: SNB-19 CNS

Structure (SMILES) | GI50 (CCRF-CEM leukemia) | TGI (CCRF-CEM leukemia) | GI50 (NCI-H460 lung) | TGI (NCI-H460 lung) | GI50 (OVCAR-3 ovarian) | TGI (OVCAR-3 ovarian) | GI50 (SF-268 CNS) | TGI (SF-268 CNS) | GI50 (SK-OV-3 ovarian) | TGI (SK-OV-3 ovarian) | GI50 (TK-10 renal) | TGI (TK-10 renal) | TGI (COLO 205 colon) | TGI (MOLT-4 leukemia) | TGI (OVCAR-5 ovarian) | TGI (SNB-19 CNS) | GI50 (COLO 205 colon) | GI50 (MOLT-4 leukemia) | GI50 (OVCAR-5 ovarian) | GI50 (SNB-19 CNS)
COc1ccc2c(c1)c(-c1nc(-c3c[nH]c4ncccc34)cs1)cn2CCCCN1CCCCC1 | 1.83 µM | 3.5 µM | 1.81 µM | 3.5 µM | 1.76 µM | 3.24 µM | 1.59 µM | 3.21 µM | 1.75 µM | 3.18 µM | 1.51 µM | 2.93 µM | – | – | – | – | – | – | – | –
CCC(=O)OCN(C)c1nc(N(C)COC(=O)CC)nc(N(C)COC(=O)CC)n1 | – | > 100 µM | – | > 100 µM | – | > 100 µM | – | – | – | > 100 µM | – | > 100 µM | 59.2 µM | 82.9 µM | > 100 µM | > 100 µM | – | – | – | –
O=C1c2ccccc2OCC12OC21C=CC(Cl)=CC1 (stereo not drawn) | – | – | – | 47.9 µM | – | 42.1 µM | – | > 100 µM | – | > 100 µM | – | > 100 µM | 33.4 µM | 23.5 µM | 81.3 µM | 80.3 µM | – | – | – | –
N[C@H](Cc1ccc2oc3cc(=O)c4ccccc4c-3nc2c1)C(=O)O | – | 56.2 µM | – | > 100 µM | – | > 100 µM | – | > 100 µM | – | > 100 µM | – | > 100 µM | > 100 µM | > 100 µM | > 100 µM | > 100 µM | – | – | – | –
COC(=O)C1=C(OC)[C@H]2C#C/C=C\C#C[C@@H]3Nc4c(cc(O)c5c4C(=O)c4ccccc4C5=O)[C@]24O[C@@]34[C@H]1C | – | < 0.01 µM | – | > 100 µM | – | 0.113 µM | – | < 0.0341 µM | – | – | – | 0.176 µM | 0.014 µM | < 0.01 µM | 0.0311 µM | – | – | – | – | –
Cc1nc2ccc(S(=O)(=O)Nc3nccs3)cc2c(=O)n1NS(=O)(=O)c1nccs1 | – | > 100 µM | – | > 100 µM | – | > 100 µM | – | > 100 µM | – | > 100 µM | – | > 100 µM | > 100 µM | > 100 µM | > 100 µM | > 100 µM | – | – | – | –
O=C(CBr)c1ccc2cc(Br)c3ccccc3c2c1 | – | > 100 µM | – | 54.4 µM | – | 46.9 µM | – | 47 µM | – | – | – | 36.9 µM | > 100 µM | 37 µM | 57.9 µM | 64.6 µM | – | – | – | –
CCCCC1C=Cn2c(=O)oc3c(OC(C)C)c(C)c(O)c1c32 (stereo not drawn) | – | 5.1 µM | – | 8.39 µM | – | 14.8 µM | – | 13.2 µM | – | 13.3 µM | – | 18.7 µM | 9.97 µM | 3.33 µM | 15.1 µM | 13.3 µM | – | – | – | –
O=C(N[C@@H](Cc1coc2ccccc12)B(O)O)[C@@H]1C[C@H]2CC[C@@H]1O2 | 1.2 µM | > 100 µM | 30.7 µM | > 100 µM | 4.04 µM | > 100 µM | 9.62 µM | > 100 µM | 9.17 µM | > 100 µM | 2.44 µM | 11.5 µM | > 100 µM | 48 µM | > 100 µM | > 100 µM | 23.1 µM | 2.96 µM | 6.8 µM | 4.98 µM
C(=Nc1ccc2c(c1)Cc1ccccc1-2)c1ccccn1 | – | > 100 µM | – | > 100 µM | – | > 100 µM | – | > 100 µM | – | – | – | > 100 µM | – | > 100 µM | > 100 µM | > 100 µM | – | – | – | –
CN(C)CCCNc1ccc2ncn3c4ccc(O)cc4c(=O)c1c23 | – | 32.6 µM | – | 4.56 µM | – | 17.6 µM | – | 13.5 µM | – | 15.1 µM | – | 19.8 µM | 15.3 µM | 10.1 µM | 15.7 µM | 20.1 µM | – | – | – | –
CCCn1cnc2c(SCc3ccc(Cl)cc3)nc(N)nc21 | – | > 100 µM | – | 40.6 µM | – | 41.3 µM | – | > 100 µM | – | > 100 µM | – | 55.1 µM | – | – | > 100 µM | > 100 µM | – | – | – | –
CCCO[C@@H]1[C@@H](OC(C)=O)[C@@H](OC(C)=O)C(C)(C)/C=C/[C@H](C)C(=O)[C@@]2(OC(C)=O)C[C@@](C)(OC(C)=O)[C@H](OC(C)=O)[C@@H]2[C@H]2OC(=O)CC[C@@]12OC(=O)c1ccccc1 | – | > 25 µM | – | > 25 µM | – | > 25 µM | – | > 25 µM | – | > 25 µM | – | > 25 µM | > 25 µM | > 25 µM | > 25 µM | > 25 µM | – | – | – | –
O=c1cc(CF)[nH]c(=S)[nH]1 | – | > 100 µM | – | > 100 µM | – | > 100 µM | – | > 100 µM | – | – | – | > 100 µM | – | > 100 µM | > 100 µM | > 100 µM | – | – | – | –
C=CCCC1(C)CCCNC1=S (stereo not drawn) | – | > 100 µM | – | > 100 µM | – | > 100 µM | – | – | – | > 100 µM | – | > 100 µM | > 100 µM | > 100 µM | > 100 µM | > 100 µM | – | – | – | –
CNC(C)C(O)c1ccc2oc3cc(=O)c4ccccc4c-3nc2c1 (stereo not drawn) | – | 47 µM | – | 61.4 µM | – | 28.7 µM | – | > 100 µM | – | > 100 µM | – | > 100 µM | > 100 µM | 54.8 µM | > 100 µM | > 100 µM | – | – | – | –
COc1ccc(C2COc3c(ccc(O)c3C)C2)cc1OC (stereo not drawn) | – | > 200 µM | – | > 193 µM | – | > 195 µM | – | > 200 µM | – | > 200 µM | – | – | 166 µM | > 183 µM | > 162 µM | > 200 µM | – | – | – | –
CCOC(=O)c1sc2nc(SC)nc(Nc3ccc4c(c3)OCCO4)c2c1N | – | > 100 µM | – | > 100 µM | – | 26.7 µM | – | 20.4 µM | – | – | – | 30.3 µM | > 100 µM | > 100 µM | 54.7 µM | > 100 µM | – | – | – | –
C/C(=N\NC(=S)N1CCCC1)c1nc2ncccc2[nH]1 | – | 1.1 µM | – | 1.68 µM | – | > 100 µM | – | > 100 µM | – | 54.2 µM | – | 45 µM | 28.5 µM | 3.7 µM | 20.7 µM | 17.1 µM | – | – | – | –
